Experimental data taken from US10327423B2, “Antimicrobial compounds and compositions, and uses thereof” (Akeso Biomedical, Inc., priority 2014, dated 2019).

What was measured:
[1] = tested on: Staphylococcus epidermidis F1513; assay: Biofilm formation on plastic coated UV beads; format: cell-based; conditions: different concentrations of Fe-QA; T=24 h
Experimental: Bacteria (Enterococcus faecalis NCTC 12697, Staphylococcus epidermidis F1513 and Staphylococcus aureus ATCC 25923) were grown on Brain heart infusion (BHI) passaged to new medium either containing Fe-QA or alone. Growth suspensions were prepared at 0.0001 OD/ml and then allowed to grow at 37° C. under normal atmospheric conditions for 24 h in BHI with plastic coated UV beads (Lascells). […], 10 μl suspension was serially diluted 10 fold to 10-3, 10-4, 10-5, 10-6, 10-7, 10-8. For each dilution, 10 μl was spotted on BHI agar plates and colonies counted after 24 h. The beads were also removed washed in PBS before adding to 1 ml PBS. After vortex mixing, 10 μl of the cell suspension was serially diluted as above and cell counts carried out.
The effect of Fe-QA on biofilm formation by S. epidermidis F1513 was tested as described in the materials and methods of Example 1.

[2] = tested on: C. jejuni NCTC 11168; assay: ELISA of C. jejuni binding to histo-blood group antigens (BgAgs); design: species or system Campylobacter jejuni; conditions: for binding of C. jejuni to Le^b and H-II after growth in medium with Fe-QA: washed away before ELISA, one and four passages
Experimental: Binding of C. jejuni NCTC 11168 to the BgAgs (common ABO histo-blood group antigens), Le^b and H-II was measured after growing the bacteria in a medium that has either Fe-QA at 0.34 mM or 3.4 mM. The binding is measured by washing away the Fe-Q containing medium prior to testing the bacteria by ELISA as described below. Binding was measured after one passage and four passages (4 generations) with Fe-QA included in the medium, and compared to a control without Fe-QA.
The ELISA was performed as follows: BSA-BgAg conjugates were obtained from IsoSep, Tullinge, Sweden. Coupling of BgAgs to 96-well plates (NUNC Immobilizer Amino) was carried out by the addition of 100 μl BSA-BgAg (5 μg/ml unless stated otherwise) in sodium carbonate buffer to each well. Plates were incubated at room temperature for 2 h before unbound reagent was removed by washing three times in PBS-T. All wells were blocked by the addition of […] 1% BSA/PBS and incubated for 2 h at room temperature. After further washing in PBS-T, […] of DIG-tagged bacteria (at OD600 of 0.05) were added to each well and incubated overnight at 4° C. Plates were washed three times in PBS-T before […] anti-digoxigenin-POD solution (Roche Diagnostics; 1 in 5000 diluted in 1% BSA/PBS) was added and incubated for 1 h at room temperature. Plates were again vigorously washed in PBS-T and color developed by adding 100 μl ABTS substrate (Roche). Plates were read with an ELISA reader (Biotek EL800) at an absorbance of 405 nm. Specific binding was determined by subtracting the binding of each strain to BSA (typically OD405 0.07-0.09) from the binding to each BSA-BgAg conjugate. Inhibition assays shown in FIG. 4B were carried out as above but after the removal of the blocking solution, DIG-labeled C. jejuni was pre-incubated for 4 h with an Fe-QA solution (0.34 mM) before being added to each well.

For `O=C1[O][Fe]23([O]C(=O)[C@]4(C[C@@H](O)[C@H](O)[C@H](O)C4)[O]2)([O]C(=O)[C@]2(C[C@@H](O)[C@H](O)[C@H](O)C2)[O]3)[O][C@@]12C[C@@H](O)[C@H](O)[C@H](O)C2` [FeQ, a complex of quinic acid with Fe III], the “biofilm formation on plastic coated UV beads” value [1] was “inhibited”, the “binding of C. jejuni to Le^b and H-II after growth in medium with Fe-QA” value ([2]; Fe-QA 0.34 mM in medium) was “statistically significant decrease” and the “binding of C. jejuni to Le^b and H-II after growth in medium with Fe-QA” value ([2]; Fe-QA 3.4 mM in medium) was “marked decrease in binding”. For the same molecule, the “inhibition of binding of C. jejuni 11168 to BgAgs (Core-I, Core-II, H-I, H-II, Leb, Ley, Lex)” value ([2]; bacteria pre-incubated 4 h with Fe-QA 0.34 mM) was “significant inhibition of binding”.
